Results on three compounds are retold here after paper PMC9328652, “A novel class of fast‐acting antimalarial agents: Substituted 15‐membered azalides” (British Journal of Pharmacology, 2020).

Converted amounts (≈) assume the structure as drawn. Where two headings read alike, the source gives them in different places.

For data set [1], the system named is haem polymerization. Briefly: Cell-free haem polymerization assay. The settings on record: cell‐free, N = 2. Type of data set: biochemical. How it is done:
Experiments were performed according to Tripathi, Khan, Walker, and […] ([2004]). Briefly, a solution of sodium acetate containing mono-oleoyl glycol and the corresponding inhibitor at different concentrations is placed in 1.5-ml reaction tubes. […] Multiple washing steps with Tris/SDS and bicarbonate, to remove monomeric haem and haem aggregates, allow quantification of de novo formed β-haematin.

Data set [2] has as its system Plasmodium falciparum V1/S (CQ,PY). Kind of data set: microbe, parasite or virus in culture. Type of data set: cell-based. Particulars: 72 h, read-out: IC50 V1/S (CQ,PY). How it is done: (§1) The activity of the test compounds against P. falciparum in vitro was determined using the tritiated hypoxanthine incorporation assay of Desjardins et al. and additionally modified by Milhous and Chulay (Chulay, Haynes, & Diggs, [1983]; Milhous, Weatherly, Bowdre, & Desjardins, [1985]).
(§2) Compounds were dissolved in DMSO and subsequently diluted in the culture medium (RPMI 1640) supplemented with 10% v/v human plasma. Serial 1:2 drug dilutions were prepared in triplicate in microtitre plates. Culture medium supplemented with 10% v/v human plasma and type A Rhesus positive human erythrocytes infected with P. falciparum strains was added to yield a haematocrit of 3% and a parasitaemia of 0.25–0.55%. The plates were incubated at 37°C in a modular incubator flushed with a mixture of 5% oxygen, 3% carbon dioxide, and 92% nitrogen for 48 h, and then [^3H]hypoxanthine was added to give a final concentration of 12.5–16 μCi·ml^−1. After incubation for additional 24 h, particulate matter was harvested on fibreglass strips and hypoxanthine incorporation determined by scintillation spectrophotometry. […] Delayed death experiments were performed by this standard method but extending the incubation time with the drug up to 96 h.

The test system of data set [3] is Plasmodium falciparum Dd2 (CQ,Q,PY,S). Briefly: microbe, parasite or virus in culture. Type of data set: cell-based. Particulars: for Delayed death phenotype: Dd2 and Dd2(AZ^R), 48 versus 96 h; for IC50: Plasmodium falciparum. On the procedure: as §1, §2
The test system of data set [4] is H. influenzae ATCC49247. Briefly: Antibacterial screen, broth microdilution. Type of data set: cell-based. Particulars: Haemophilus influenzae. On the procedure:
(§3) Antibacterial activity of compounds was determined by a standard broth microdilution method (Clinical Laboratory Standard Institute CLSI, [2009]), except that for Streptococcus strains lysed blood was substituted with 5% horse serum in the testing medium. […] The activities are expressed as minimum inhibitory concentrations (MICs) in units of μg·ml^−1. […] The organisms tested represented macrolide sensitive Gram‐positive pathogens that are mainly targeted by macrolide antibiotics. Tested streptococci were clinical isolates Streptococcus pneumoniae SP030 and Streptococcus pyogenes 3565 from internal strain collection, and other strains were obtained from ATCC bioresource centre, Staphylococcus aureus ATCC13709, Haemophilus influenzae ATCC49247, and Moraxella catarrhalis ATCC23246. Double dilutions of tested compounds were prepared using TECAN Genesis 150. Bacteria were grown on appropriate agar plates (Becton Dickinson, USA)—Columbia agar with 5% sheep blood for streptococci and M. catarrhalis, Mueller‐Hinton chocolate agar for H. influenzae , and Mueller‐Hinton agar for staphylococci.

Data set [5] deals with S. pneumoniae SP030. Briefly: Antibacterial screen, broth microdilution. Format: cell-based. Particulars: Streptococcus pneumoniae. How it is done:
as §3

For data set [6], the system named is S. pyogenes 3565. Briefly: Antibacterial screen, broth microdilution. Type of data set: cell-based. The settings on record: Streptococcus pyogenes. How it is done: as §3
A short description of data set [7]: Pharmacokinetics in P. falciparum infected and uninfected humanized mice. The settings on record: for Cmax / Tmax: NODscidβ2m^−/−, mouse, whole blood, po, 12.5 mg/kg; for Cmax: C max, blood; for Cmax / Tmax / DNAUC(0–24): oral 12.5 mg·kg^−1, mean (SD); for Tmax: t max; for I/U (DNAUC infected versus uninfected): humanized mice, oral 12.5 mg·kg^−1. On the procedure:
For pharmacokinetic (PK) studies in mice, animals were dosed either by intravenous (i.v.) or oral (p.o.) route.
For studies performed in Swiss albino CD‐1 mice (Harlan Laboratories, Spain), in order to obtain simultaneous blood and plasma profiles and blood‐to‐plasma (B/P) ratio, PK was performed using terminal sampling of N = 3 animals per time point and data evaluated using composite analysis. For studies performed in P. falciparum infected and non‐infected NODscidβ2m^−/− mice (Charles River Laboratories, France), only whole blood was obtained by serial sampling of N = 3 animals using tail puncture.
For analysis of whole blood samples, 25 μl of fresh blood were mixed with 25 μl of saponin solution (0.1% in water) and immediately frozen on dry ice. Plasma was obtained by centrifugation of fresh blood at 2,500 g for 10 min. Both blood and plasma samples were stored frozen at −80°C until analysis.
Diluted blood and plasma samples were processed under standard liquid–liquid extraction procedures using acetonitrile containing internal standard (clarithromycin, 100 ng·ml^−1) and analysed by LC–MS/MS in positive ion mode with electrospray. Samples were assayed for parent compound using a Sciex API 4000 and Sciex API‐2000 Triple Quadrupole Mass Spectrometer (Sciex, Division of MDS Inc., Toronto, Canada), against a series of matrix matched calibration curve standards, using multiple reaction monitoring (MRM) at the specific transitions for each compound. Non‐compartmental analysis was performed using WinNonlin, version 4.1 (Pharsight, Mountain View, CA), and the main pharmacokinetic parameters were estimated.

The subject of data set [8] is P. falciparum 3D7^0087/N9. Briefly: P. falciparum murine model (humanized mice), 4-day test. Type of data set: in vivo, Plasmodium falciparum. Particulars: for ED90: oral QD for 4 days, parasitaemia at day 7, humanized mice. On the procedure: The in vivo efficacy evaluation of the compounds was performed using a P. falciparum murine model of malaria in non‐myelodepleted NOD. Cg‐Prkdc^ scid –β2m^ tm1Unc ‐scid IL2R_null (NODscidβ2m^−/−) mice engrafted with human erythrocytes as described previously (Angulo‐Barturen et al., [2008]; Jimenez‐Diaz et al., [2005]; Jimenez‐Diaz et al., [2009]; Jimenez‐Diaz et al., [2009]), as this model enables testing of P. falciparum strains with high infectious burden. Briefly, groups of three mice engrafted with human erythrocytes were infected with 20 × 10^6 of P. falciparum 3D7^0087/N9‐infected erythrocytes/mouse by intravenous route. The mice were randomly assigned to their corresponding experimental groups. The treatment of oral doses QD for 4 days started at day 3 after infection. Parasitaemia was measured at days 3, 5, and 7 post‐infection. The therapeutic efficacy was expressed as the dose (mg·kg^−1) that reduced parasitaemia in peripheral blood of mice at day 7 after infection by 90% (ED90) with respect to vehicle‐treated mice. Chloroquine was included as quality control for each in vivo assay. Efficacy is expressed as the daily dose (ED90), or equivalent exposure (AUCED90), administered to mice necessary to reduce parasitaemia at day 7 by 90% with respect to vehicle‐treated mice. The ED90 is estimated by fitting a four‐decade logistic equation for the log10 [parasitaemia at day 7] versus the log10 [dose] using GraphPad Prism 5.01 (GraphPad Software Inc., San Diego, CA).

Data set [9] concerns Plasmodium falciparum Dd2(AZ^R). Briefly: [3H]hypoxanthine incorporation antimalarial assay, azithromycin-resistant mutant Dd2(AZ^R). Format: cell-based. On the procedure: as §1, §2
Where [10] appears, read: DD2, 48 h, read-out: IC50 Dd2 48 h.
[11] abbreviates: DD2, 72 h, read-out: IC50 Dd2 (CQ,Q,PY,S).
The mark [12] stands for this setting: DD2, 96 h, read-out: IC50 Dd2 96 h.
[13] abbreviates: DD2, 48 h, read-out: IC50 Dd2(AZ^R) 48 h.
Setting [14] is: DD2, 96 h, read-out: IC50 Dd2(AZ^R) 96 h.

With `CC[C@H]1OC(=O)[C@H](C)[C@@H](O[C@H]2C[C@@](C)(OC)[C@@H](O)[C@H](C)O2)[C@H](C)[C@@H](O[C@@H]2O[C@H](C)C[C@H](N(C)C)[C@H]2O)[C@](C)(O)C[C@@H](C)CN(C)[C@H](C)[C@@H](O)[C@]1(C)O` [Azithromycin, reference compound], the IC50 in data set [1] was more than 50 µM; in [2], 15.9 µM; in data set [3] (setting [10]) it was 3.27 µM; in data set [3] (setting [11]), 1.59 µM; in [3] (setting [12]) it was 0.081 µM; in data set [9] (setting [13]), 3.36 µM. Further, the IC50 in data set [9] (setting [14]) was 1.49 µM. In addition, in data set [3], the Delayed death phenotype entry was “Yes”. Further, the values for the MIC in data set [4], in [5] and in data set [6] were 2 µg/mL (≈ 2.67 µM), not above 0.125 µg/mL and not above 0.125 µg/mL, respectively. Moreover, the Cmax in [7] (infected (I) humanized mice) was 344 ng/mL; in data set [7] (uninfected (U) humanized mice), 243 ng/mL. Moreover, the values for the Tmax in data set [7] (infected (I) humanized mice) and in data set [7] (uninfected (U) humanized mice) were 1 h and 1.67 h, respectively. Besides, in data set [7], the “I/U (DNAUC infected versus uninfected)” value was found to be 1.1. Moreover, the figures for the “DNAUC(0–24)” value in [7] (infected (I) humanized mice) and in [7] (uninfected (U) humanized mice) were 161 (7) ng*h·ml^−1·mg^−1·kg^−1 and 146 (37) ng*h·ml^−1·mg^−1·kg^−1, respectively. In addition, in data set [8], the ED90 was more than 200 mg/kg.
Turning to `CC[C@H]1OC(=O)[C@H](C)[C@@H](O[C@H]2C[C@@](C)(OC)[C@@H](O)[C@H](C)O2)[C@H](C)[C@@H](O[C@@H]2O[C@H](C)C[C@H](N(C)C)[C@H]2O)[C@](C)(O)C[C@@H](C)CN(CCCNc2ccnc3cc(Cl)ccc23)[C@H](C)[C@@H](O)[C@]1(C)O` [Compound 1], the IC50 was 2.5 to 4 µM in data set [1]; 0.028 µM in data set [2]; 0.017 µM in data set [3] (setting [10]); 0.025 µM in [3] (setting [11]); 0.012 µM in [3] (setting [12]); 0.021 µM in data set [9] (setting [13]). In addition, the IC50 in data set [9] (setting [14]) amounted to 0.011 µM. Moreover, in data set [3], the Delayed death phenotype result was “No”. Also, the results for the MIC in data set [4], in data set [5] and in data set [6] were 16 µg/mL (≈ 16.8 µM), not above 0.125 µg/mL and not above 0.125 µg/mL, respectively. Moreover, the peak concentration (Cmax) in data set [7] (infected (I) humanized mice) amounted to 775 ng/mL; in data set [7] (uninfected (U) humanized mice), 173 ng/mL. In addition, the Tmax in data set [7] (infected (I) humanized mice) amounted to 1 h; in data set [7] (uninfected (U) humanized mice) it was 0.75 h. Moreover, the “I/U (DNAUC infected versus uninfected)” value in data set [7] is on record as 2.1. Also, the results for the “DNAUC(0–24)” value in [7] (infected (I) humanized mice) and in data set [7] (uninfected (U) humanized mice) were 362 (68) ng*h·ml^−1·mg^−1·kg^−1 and 169 (33) ng*h·ml^−1·mg^−1·kg^−1, respectively. Moreover, the “day of follow‐up up to which parasitaemia remained undetectable / parasite growth suppressed” value in data set [8] (humanized mice, oral 4‐day treatment) is not below 24 days.
As to `CC[C@H]1OC(=O)[C@H](C)[C@@H](O)[C@H](C)[C@@H](O[C@@H]2O[C@H](C)C[C@H](N(C)C)[C@H]2OCCCNc2ccnc3ccccc23)[C@](C)(O)C[C@@H](C)CN[C@H](C)[C@@H](O)[C@]1(C)O` [Compound 3], the IC50 was 5 to 6.2 µM in [1]; 0.03 µM in data set [2]; 0.024 µM in data set [3] (setting [10]); 0.03 µM in data set [3] (setting [11]); 0.022 µM in data set [3] (setting [12]); 0.027 µM in [9] (setting [13]). The IC50 in data set [9] (setting [14]) was determined as 0.023 µM. The Delayed death phenotype entry in [3] was “No”. Moreover, the MIC in data set [4], in data set [5] and in [6] was more than 64 µg/mL each time. In addition, the Cmax in data set [7] (infected (I) humanized mice) stood at 348 ng/mL; in data set [7] (uninfected (U) humanized mice), 83.8 ng/mL. Further, the Tmax is 1.67 h in [7] (infected (I) humanized mice) and 2.2 h in data set [7] (uninfected (U) humanized mice). In [7], the “I/U (DNAUC infected versus uninfected)” value was 3.9. Also, the entries for the “DNAUC(0–24)” value in [7] (infected (I) humanized mice) and in data set [7] (uninfected (U) humanized mice) were 354 (129) ng*h·ml^−1·mg^−1·kg^−1 and 91 (85) ng*h·ml^−1·mg^−1·kg^−1, respectively. In addition, in [8], the ED90 turned out to be 23.9 mg/kg.
